Reference: patent US20040151677A1, “1,3,5-Triazine sunscreens solubilized in mixed phthalimide eutectics” (SOCIETE L'OREAL, S.A., priority 2002, published 2004)

Columns and labels:
[1] = Comparative study of the solubility of a triazine derivative in different solvents; format: physicochemical; conditions: heated to 83° C., crystals observed after 24 hours and cooling to room temperature
Protocol: Comparative Study of the Solubility of a Triazine Derivative in Different Solvents The solubility of a triazine derivative (i.e., 2,4,6-tris(diisobutyl 4′-aminobenzalmalonate)-s-triazine) in different solvents was determined by means of the following test:
20 g of solvent are added, at room temperature, to 5 g of screening agent, the mixture thus obtained is brought to 83° C. using a water bath, the presence or absence of crystals is observed after 24 hours and cooling to room temperature.
The results obtained are collated in the table below (the chemical names are given in the CTFA nomenclature, 5th edition, 1993).

[2] = Test of in vitro efficacy: in vitro sun protection factor (Diffey method) of O/W emulsions; conditions: screening agent 5% in O/W support, mean of three SPF values
Description: Test of In Vitro Efficacy:
The method for evaluating the protection factor used is the in vitro method described by B. L. Diffey et al. in J. Soc. Cosmet. Chem. 40-127-133 (1989), which consists in determining the monochromatic protection factors every 5 nm in a wavelength range from 290 to 400 nm, and in calculating therefrom the sun protection factor according to a given mathematical equation.
Two screening agents of triazine type were formulated in a support of O/W type, at 5% by weight, in the solvent according to the invention and in a comparative solvent (Finsolv TN), and three SPF values, the mean and the standard deviation of which are collated in the table below, were determined for each formulation: […]

[3] = solvent 15% C12-C15 alkyl benzoate "Finsolv TN" (comparative)
[4] = solvent 15% n-butylphthalimide/isopropylphthalimide Pelemol BIP (invention)

Structure (SMILES): CC(C)COC(=O)C(=Cc1ccc(Nc2nc(Nc3ccc(C=C(C(=O)OCC(C)C)C(=O)OCC(C)C)cc3)nc(Nc3ccc(C=C(C(=O)OCC(C)C)C(=O)OCC(C)C)cc3)n2)cc1)C(=O)OCC(C)C [2,4,6-tris(diisobutyl 4′-aminobenzalmalonate)-s-triazine]
- SOLUBILITY OF THE TRIAZINE SCREENING AGENT ([1]; solvent: C8-C12 fatty acid triglycerides "Miglyol 812"): <10%
- SOLUBILITY OF THE TRIAZINE SCREENING AGENT ([1]; solvent: C12-C15 alkyl benzoate "Finsolv TN"): <10%
- SOLUBILITY OF THE TRIAZINE SCREENING AGENT ([1]; solvent: PPG-3 myristyl ether "Witconol APM"): <10%
- SOLUBILITY OF THE TRIAZINE SCREENING AGENT ([1]; solvent: n-butylphthalimide/isopropylphthalimide eutectic mixture Pelemol BIP (invention)): 40%
- Mean SPF (Standard Deviation) [2, 3]: 4.1
- Mean SPF (Standard Deviation) [2, 4]: 8.0

Structure (SMILES): CCCCC(CC)COc1ccc(-c2nc(-c3ccc(OC)cc3)nc(-c3ccc(OCC(CC)CCCC)cc3O)n2)c(O)c1 (centres unmarked) [Anisotriazine]
- Mean SPF (Standard Deviation) [2, 3]: 8.5
- Mean SPF (Standard Deviation) [2, 4]: 11.4
